Results taken from ChEMBL document CHEMBL3885881, “DrugMatrix”.

Species: Rattus norvegicus
Experiment: DrugMatrix - Regimen: Daily Repeat
Assay type: toxicity, organism-based, Sprague-Dawley
Set-up: regimen Daily Repeat, gender Male, age 6-8 weeks
Conditions: in vivo, po, route oral GAVAGE, […]; for ABSOLUTE BASOPHIL / BASOPHIL / ABSOLUTE EOSINOPHIL / ABSOLUTE LYMPHOCYTE / ABSOLUTE MONOCYTE / ABSOLUTE SEGMENTED NEUTROPHIL / EOSINOPHIL / ERYTHROCYTE COUNT / HEMATOCRIT / HEMOGLOBIN / LEUKOCYTE COUNT / LYMPHOCYTE / MEAN CORPUSCULAR HEMOGLOBIN / MEAN CORPUSCULAR HEMOGLOBIN CONCENTRATION / MEAN CORPUSCULAR VOLUME / MONOCYTE / NEUTROPHIL / NUCLEATED RED BLOOD CELLS / PLATELET COUNT: tissue Blood; for ALANINE AMINOTRANSFERASE / ALBUMIN / ALKALINE PHOSPHATASE / ASPARTATE AMINOTRANSFERASE / BLOOD UREA NITROGEN / CARBON DIOXIDE / CHOLESTEROL / CREATINE PHOSPHOKINASE / CREATININE / GLUCOSE / LACTATE DEHYDROGENASE / LIPASE / TOTAL BILIRUBIN / TOTAL PROTEIN / URIC ACID: tissue Plasma
[1] = 0 mg/kg, 72 h, dose level Control, time 3 day
[2] = 0 mg/kg, 120 h, dose level Control, time 5 day
[3] = 10 mg/kg, 72 h, dose level M1, time 3 day
[4] = 10 mg/kg, 120 h, dose level M1, time 5 day
[5] = 32 mg/kg, 72 h, dose level M2, time 3 day
[6] = 32 mg/kg, 120 h, dose level M2, time 5 day

SMILES: CC/C(=C(\c1ccccc1)c1ccc(OCCN(C)C)cc1)c1ccccc1 [TAMOXIFEN]
- ABSOLUTE BASOPHIL [1]: 0 CELLS/uL
- BASOPHIL [1]: 0%
- ABSOLUTE BASOPHIL [2]: 0 CELLS/uL
- BASOPHIL [2]: 0%
- ABSOLUTE BASOPHIL [3]: 0 CELLS/uL
- ABSOLUTE EOSINOPHIL [3]: 39 CELLS/uL
- ABSOLUTE LYMPHOCYTE [3]: 8296.33 CELLS/uL
- ABSOLUTE MONOCYTE [3]: 168.33 CELLS/uL
- ABSOLUTE SEGMENTED NEUTROPHIL [3]: 529.67 CELLS/uL
- BASOPHIL [3]: 0%
- EOSINOPHIL [3]: 0.33%
- ERYTHROCYTE COUNT [3]: 5.69 x10E6/uL
- HEMATOCRIT [3]: 36.07%
- HEMOGLOBIN [3]: 13.53 G/DL
- LEUKOCYTE COUNT [3]: 9.03 x10E3/uL
- LYMPHOCYTE [3]: 92.33%
- MEAN CORPUSCULAR HEMOGLOBIN [3]: 23.9 pg
- MEAN CORPUSCULAR HEMOGLOBIN CONCENTRATION [3]: 37.57 G/DL
- MEAN CORPUSCULAR VOLUME [3]: 63.63 fL
- MONOCYTE [3]: 1.67%
- NEUTROPHIL [3]: 5.67%
- NUCLEATED RED BLOOD CELLS [3]: 0 /100WBC
- PLATELET COUNT [3]: 1296.33 x10E3/uL
- ALANINE AMINOTRANSFERASE [3]: 62.67 u/L
- ALBUMIN [3]: 4 G/DL
- ALKALINE PHOSPHATASE [3]: 415 u/L
- ASPARTATE AMINOTRANSFERASE [3]: 79.33 u/L
- BLOOD UREA NITROGEN [3]: 9.67 mg/dL
- CARBON DIOXIDE [3]: 28.33 mmol/L
- CHOLESTEROL [3]: 52.67 mg/dL
- CREATINE PHOSPHOKINASE [3]: 228 u/L
- CREATININE [3]: 0.2 mg/dL
- GLUCOSE [3]: 179 mg/dL
- LACTATE DEHYDROGENASE [3]: 97.33 u/L
- LIPASE [3]: 9.33 u/L
- TOTAL BILIRUBIN [3]: 0.13 mg/dL
- TOTAL PROTEIN [3]: 5.57 G/DL
- URIC ACID [3]: 1.9 mg/dL
- ABSOLUTE BASOPHIL [4]: 0 CELLS/uL
- ABSOLUTE EOSINOPHIL [4]: 119.33 CELLS/uL
- ABSOLUTE LYMPHOCYTE [4]: 10935 CELLS/uL
- ABSOLUTE MONOCYTE [4]: 173 CELLS/uL
- ABSOLUTE SEGMENTED NEUTROPHIL [4]: 706 CELLS/uL
- BASOPHIL [4]: 0%
- EOSINOPHIL [4]: 1%
- ERYTHROCYTE COUNT [4]: 6.34 x10E6/uL
- HEMATOCRIT [4]: 39.5%
- HEMOGLOBIN [4]: 15 G/DL
- LEUKOCYTE COUNT [4]: 11.93 x10E3/uL
- LYMPHOCYTE [4]: 91.67%
- MEAN CORPUSCULAR HEMOGLOBIN [4]: 23.67 pg
- MEAN CORPUSCULAR HEMOGLOBIN CONCENTRATION [4]: 37.97 G/DL
- MEAN CORPUSCULAR VOLUME [4]: 62.37 fL
- MONOCYTE [4]: 1.33%
- NEUTROPHIL [4]: 6%
- NUCLEATED RED BLOOD CELLS [4]: 0 /100WBC
- PLATELET COUNT [4]: 1194 x10E3/uL
- ALANINE AMINOTRANSFERASE [4]: 55.67 u/L
- ALBUMIN [4]: 4.53 G/DL
- ALKALINE PHOSPHATASE [4]: 463 u/L
- ASPARTATE AMINOTRANSFERASE [4]: 84 u/L
- BLOOD UREA NITROGEN [4]: 10.33 mg/dL
- CARBON DIOXIDE [4]: 27 mmol/L
- CHOLESTEROL [4]: 49.33 mg/dL
- CREATINE PHOSPHOKINASE [4]: 234 u/L
- CREATININE [4]: 0.24 mg/dL
- GLUCOSE [4]: 120 mg/dL
- LACTATE DEHYDROGENASE [4]: 120 u/L
- LIPASE [4]: 9.33 u/L
- TOTAL BILIRUBIN [4]: 0.1 mg/dL
- TOTAL PROTEIN [4]: 6.33 G/DL
- URIC ACID [4]: 2.4 mg/dL
- ABSOLUTE BASOPHIL [5]: 0 CELLS/uL
- ABSOLUTE EOSINOPHIL [5]: 54 CELLS/uL
- ABSOLUTE LYMPHOCYTE [5]: 12289.67 CELLS/uL
- ABSOLUTE MONOCYTE [5]: 92.33 CELLS/uL
- ABSOLUTE SEGMENTED NEUTROPHIL [5]: 964 CELLS/uL
- BASOPHIL [5]: 0%
- EOSINOPHIL [5]: 0.33%
- ERYTHROCYTE COUNT [5]: 6.02 x10E6/uL
- HEMATOCRIT [5]: 39.07%
- HEMOGLOBIN [5]: 14.67 G/DL
- LEUKOCYTE COUNT [5]: 13.4 x10E3/uL
- LYMPHOCYTE [5]: 91.67%
- MEAN CORPUSCULAR HEMOGLOBIN [5]: 24.4 pg
- MEAN CORPUSCULAR HEMOGLOBIN CONCENTRATION [5]: 37.53 G/DL
- MEAN CORPUSCULAR VOLUME [5]: 64.97 fL
- MONOCYTE [5]: 0.67%
- NEUTROPHIL [5]: 7.33%
- NUCLEATED RED BLOOD CELLS [5]: 0 /100WBC
- PLATELET COUNT [5]: 1258 x10E3/uL
- ALANINE AMINOTRANSFERASE [5]: 66.67 u/L
- ALBUMIN [5]: 4.63 G/DL
- ALKALINE PHOSPHATASE [5]: 371.33 u/L
- ASPARTATE AMINOTRANSFERASE [5]: 106.67 u/L
- BLOOD UREA NITROGEN [5]: 5.67 mg/dL
- CARBON DIOXIDE [5]: 26.33 mmol/L
- CHOLESTEROL [5]: 43.33 mg/dL
- CREATINE PHOSPHOKINASE [5]: 723.67 u/L
- CREATININE [5]: 0.2 mg/dL
- GLUCOSE [5]: 150.33 mg/dL
- LACTATE DEHYDROGENASE [5]: 184.33 u/L
- LIPASE [5]: 9.33 u/L
- TOTAL BILIRUBIN [5]: 0.1 mg/dL
- TOTAL PROTEIN [5]: 6.03 G/DL
- URIC ACID [5]: 2.5 mg/dL
- ABSOLUTE BASOPHIL [6]: 0 CELLS/uL
- ABSOLUTE EOSINOPHIL [6]: 0 CELLS/uL
- ABSOLUTE LYMPHOCYTE [6]: 12430.67 CELLS/uL
- ABSOLUTE MONOCYTE [6]: 227.33 CELLS/uL
- ABSOLUTE SEGMENTED NEUTROPHIL [6]: 2075.33 CELLS/uL
- BASOPHIL [6]: 0%
- EOSINOPHIL [6]: 0%
- ERYTHROCYTE COUNT [6]: 6.29 x10E6/uL
- HEMATOCRIT [6]: 39.17%
- HEMOGLOBIN [6]: 14.9 G/DL
- LEUKOCYTE COUNT [6]: 14.73 x10E3/uL
- LYMPHOCYTE [6]: 84.33%
- MEAN CORPUSCULAR HEMOGLOBIN [6]: 23.7 pg
- MEAN CORPUSCULAR HEMOGLOBIN CONCENTRATION [6]: 38.07 G/DL
- MEAN CORPUSCULAR VOLUME [6]: 62.27 fL
- MONOCYTE [6]: 1.67%
- NEUTROPHIL [6]: 14%
- NUCLEATED RED BLOOD CELLS [6]: 0 /100WBC
- PLATELET COUNT [6]: 1261.33 x10E3/uL
- ALANINE AMINOTRANSFERASE [6]: 65.67 u/L
- ALBUMIN [6]: 4.73 G/DL
- ALKALINE PHOSPHATASE [6]: 464.33 u/L
- ASPARTATE AMINOTRANSFERASE [6]: 99 u/L
- BLOOD UREA NITROGEN [6]: 11.33 mg/dL
- CARBON DIOXIDE [6]: 27.33 mmol/L
- CHOLESTEROL [6]: 40.33 mg/dL
- CREATINE PHOSPHOKINASE [6]: 288.67 u/L
- CREATININE [6]: 0.23 mg/dL
- GLUCOSE [6]: 136.67 mg/dL
- LACTATE DEHYDROGENASE [6]: 164.33 u/L
- LIPASE [6]: 9.67 u/L
- TOTAL BILIRUBIN [6]: 0.1 mg/dL
